According to patent US12685781B2, “Anti-HER3 antibody-drug conjugate” (DAIICHI SANKYO COMPANY, LIMITED, priority 2014, dated 2026):

Assays:
[1] = tested on: human melanoma cell line HT-144; assay: Antitumor test, human melanoma HT-144 in NMRI nude mice; type: in vivo, mouse; details: 25 mg/kg subcutaneously twice a week
Procedure: Five- to 6-week-old female NMRI nude mice having a body weight of 22 to 26 g after acclimation were used. The mice were placed in individually ventilated cages (IVC, 4 mice at maximum per cage) which were kept at room temperature and a constant humidity. After randomization, the body weights of the mice were measured every other day, and the behaviors of the animals were recorded every day.
5×10^6 cells of a human melanoma cell line HT-144 (HTB-63) from ATCC were suspended in a solution prepared from 50 uL of PBS and Matrigel (PBS: PAA #H21-002, Matrigel: BD #354230) mixed at a ratio of 1:1, and subcutaneously transplanted to the right side area of the body of each NMRI nude mouse using a 29 G needle.
The measurement of the body weights and the tumor sizes and the measurement and calculation of the tumor volumes were carried out in the same manner as Test Example 6.
At Day 22 when the tumor size reached about 150 mm^3, 80 animals were randomly divided into 8 groups on the basis of their tumor sizes. At the same day, U1-59 or the antibody-drug conjugate (3), (10), or (13) or PBS for a control group were administered into the tail vein of each animal at the following doses.
Administration group: PBS was intravenously injected once a week at the same dose as the antibody-drug conjugate.
Administration group: U1-59 was subcutaneously injected twice a week at 25 mg/kg. […]

HER3 = HER3 (Homo sapiens, UniProt P21860); assay: Reduction in expression of HER3 on cell surface (internalization), flow cytometry in HCC1569; type: cell-based; parameters: host or cells: HCC1569 (human breast cancer cell line); details: HCC1569, 10 ug/mL, 37 C, 1 hr
Procedure: HER3 internalization by U1-59 and each antibody-drug conjugate was evaluated by flow cytometry. 70,000 living cells of HCC1569 (from ATCC) were suspended in 0.5 mL of RPMI1640 (Invitrogen Corp., #31870-025) (containing 10% FBS (Invitrogen Corp., #10270-106 or PAN Biotech GmbH, #1505-P131304) and 2 mM glutamine (Invitrogen Corp., #25030-024)) and inoculated to each well of a 24-well plate. The cells were cultured for 4 days, and the medium was replaced with 0.5 mL of a fresh medium before the start of the internalization test. 5 ug of the antibody or each antibody-drug conjugate was added to 0.5 mL in each well of the 24-well plate such that the final concentration was 10 ug/mL. The cells were cultured for 1 hour at 37 C in the presence of the antibody or the antibody-drug conjugate. […]
For flow cytometry analysis, the cells were washed once with PBS and dissociated from the plate using 5 mM EDTA (100 uL/well) dissolved in ACCUTASE® SOLUTION (Millipore Corp., SCR005) or PBS. […] The fluorescence signals of living cells were measured using Accuri C6 Flow cytometer. […]
In order to quantify HER3-specific signals, values of cells stained with only the secondary antibody or 7-AAD were subtracted from FL-2 values of cells stained with the primary antibody and the secondary antibody, and further 7-AAD. […]

U1-59: anti-HER3 human antibody; heavy and light chain variable regions SEQ ID NOs: 70 and 72; produced per WO 2007/077028
day after transplantation at which group was euthanized because tumor sizes exceeded acceptable maximum level [1]: 52 days
reduction in HER3 expression on cell surface (HER3): about 50%
